By pIC50 is commonly meant the negative decadic logarithm of the IC50, by convention in mol/L. Read a high pIC50 as a low IC50.

This note sets out measurements from patent US20260209249A1, “NOVEL TRICYCLIC COMPOUND AS KRAS G12D INHIBITOR, AND USE THEREOF” (SK Biopharmaceuticals Co., priority 2022, published 2026).

pIC50: −log10 of the molar value.

For assay [1], the system named is KRAS G12D mutant pancreatic cancer cell line AsPC-1. The assay is described as follows: Cell viability assay using KRAS G12D mutant cells (AsPC-1, 3D culture, celltiter-glo 3D). It counts as cell-based. To be noted: Homo sapiens, ASPC1, 5th day after compound treatment. The method, then: Test Example 3: Cell Viability Assay Using KRAS G12D Mutant Cells
The KRAS G12D mutant pancreatic cancer cell line AsPC-1 was obtained from the Korean Cell Line Bank (KCLB) and maintained in 100-mm dishes or T75 (75 cm^2) flasks using RPM11640+10% fetal bovine serum (FBS)+1% Penicillin-Streptomycin medium. The cells were cultured at 37° C. with 5% CO2. The number of viable cells was counted using Countess (Invitrogen).
When AsPC-1 cells reached 85-100% confluence in the flask, the cells were harvested using 1× trypsin/EDTA solution, and seeded into a 96-well plate for 3D culture at 1000 cells/100 μL/well. The next day, the compounds were diluted ⅕ with DMSO from 10 μM or 50 μM to 0.0001 μM or 0.0006 μM and treated 1:1 (v/v) in the plate where the cells were seeded.
Cell culture was terminated on the 5th day after compound treatment, and cell viability at each concentration was measured using the celltiter-glo 3D cell viability assay kit.
Cell viability assays were normalized to 100% for the DMSO-treated group and expressed as a percentage of the number of viable cells when treated with the compound.
Cell viability %=(average RLU of group treated with test substance−average RLU of untreated group)/(average RLU of group treated with DMSO−average RLU of untreated group)×100
The data were modeled using GraphPad Prism 9 (GraphPad Software) by applying a nonlinear regression curve fit with a four-parameter sigmoidal dose-response curve to determine cell viability as a function of compound concentration. The 50% inhibitory concentration (IC50) corresponds to the concentration at which the curve intersects the midpoint of cell viability. The results of the inhibitory effect of the compounds according to one embodiment of the present application on the viability of KRAS G12D mutant cells are presented in Table 4.

Assay [2] has as its target T1, GDP-KRAS G12D mutant protein (Homo sapiens, UniProt P01116, G12D).
T1 construct: purchased Daegu Gyeongbuk Medical Innovation Foundation (DGMIF), made to order
Description: Differential scanning fluorimetry (DSF) binding affinity to GDP-KRAS G12D mutant protein. To be noted: DSF thermal shift, 10 μM compound, 4 μg KRAS protein. The essentials: (§1)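 Thermal shift ΔTm was measured at 10 μM compound over a 25–99 °C ramp (0.05 °C/s), read at 580 nm ex/623 nm em with SYPRO Orange (2×). The protein (4 μg) was preincubated with compound for 30 min at room temperature, in 50 mM HEPES pH 7.5 for GppNHp-KRAS G12D or in kit buffer for GDP-KRAS G12D.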
In general terms: In DSF a fluorescence change marks the thermal transition of the protein.

Assay [3] has as its target T2, GppNHp-KRAS G12D mutant protein (Homo sapiens, UniProt P01116, G12D).
T2 construct: purchased Daegu Gyeongbuk Medical Innovation Foundation (DGMIF), made to order
Description: Differential scanning fluorimetry (DSF) binding affinity to GppNHp-KRAS G12D mutant protein. To be noted: DSF thermal shift, 10 μM compound, 4 μg KRAS protein, 50 mM HEPES (pH 7.5). The gist of the method:
as §1

In assay [4] the test system is ERK phosphorylation (pERK) induced by KRAS G12D mutation. The assay is described as follows: Inhibitory activity against ERK phosphorylation (pERK) induced by KRAS G12D mutation, immunofluorescence assay in AsPC-1 cells. The class given is cell-based. To be noted: Homo sapiens, ASPC1, 3 h drug treatment, pERK (Thr202/Tyr204) signal normalized to DAPI. The source says: Test Example 2: Measurement of Inhibitory Activity Against ERK Phosphorylation (pERK) Induced by KRAS G12D Mutation (Immunofluorescence Assay)
Immunofluorescence is a method used to detect specific substances within cells or tissues through antigen-antibody interactions, and allows for the identification of the presence or absence of specific proteins by using antibodies labeled with various fluorescent dyes. After a primary antibody that recognizes a specific protein selectively binds to the epitope, a fluorescent antibody (secondary antibody) is bound to the primary antibody.
It was confirmed as follows that the compounds according to an embodiment of the present application inhibit phosphorylation of extracellular signal-regulated kinases (Phospho-ERK, pERK) induced by KRAS G12D mutation.
AsPC-1 cells were seeded at a density of 10,000 cells/well in RPMI-1640 medium containing 10% FBS and 1% Penicillin-Streptomycin in 384-well plates (Perkinelmer, #6057300) and allowed to attach for 16 h. After the cells attached to the plate, the cells were treated with drugs at a maximum concentration of 10 μM with a 3-fold serial dilution. After 3 h of drug treatment, the medium was removed and the cells were treated with 50 μL of 4% formaldehyde (Biosesang, #PC2031-050-00) for 20 min and washed three times with 50 μL of phosphate buffered saline (PBS).
50 μL of PBS containing 0.3% Triton X-100 (Sigma, #T8787-250 mL) was added and reacted for 20 minutes to allow antibody penetration into cells, and then the plate was washed three times with 50 μL of PBS. To block nonspecific binding of antibodies to the plate, 50 μL of PBS containing 2% BSA (sigma, #A7906-500G) and 0.01% Tween-20 (Sigma, #P1379-500 mL) (hereinafter referred to as PBS-T) was added, and reacted at room temperature for 2 hours.
To detect pERK, the primary antibody (cell signaling, #9101) was diluted 1:500 in PBS-T containing 2% BSA, 50 μL was added, and the plate was stored in a refrigerator at 4° C. for 16 hours to react, followed by washing three times with 50 μL of PBS-T. To visualize the primary antibody, the secondary antibody, i.e., anti-rabbit-Alexa Fluor 488 (ThermoFisher, #A11008), was diluted 1:1000 in PBS-T containing 2% BSA, 50 μL was added, and after reaction at room temperature for 1 hour, the plate was washed three times with 50 μL of PBS-T. Next, to visualize the nuclei of cells, DAPI (Thermofisher, #62248, 1 mg/mL) was diluted 1:1000 in PBS-T, 50 μL each was added, reacted at room temperature for 10 minutes, and washed three times with 50 μL of PBS-T. 50 μL of PBS-T was added to each well, and the plate was read for fluorescence value using HCS equipment (MOLECULAR DEVICES/ImageXpress Micro).
Data analysis was performed by normalizing the pERK (Thr202/Tyr204) signal to the DAPI signal and calculating the percentage relative to the DMSO as a control. The IC50 value was determined by fitting a four-parameter dose-response curve using the GraphPad Prism software (version 8.4.3), and interpolating the concentration at which 50% inhibition occurred. The results of calculating the inhibitory efficacy of the compounds according to one embodiment of the present application against KRAS G12D mutation-induced pERK activity are shown in Table 3.

In assay [1], `C#Cc1c(F)ccc2cc(O)cc(-c3c(F)c4nc(OC[C@]56CC(=C)CN5C[C@@H](F)C6)nc(N5C[C@H]6CC[C@@H](C5)N6)c4c4cn(C)nc34)c12` [Example 100, 4-(9-((1 R,5S)-3,8-diazabicyclo[3.2.1]octan-3-yl)-5-fluoro-7-(((2S,7aR)-2-fluoro-6-methylenetetrahydro-1H-pyrrolizin-7a(5H)-yl)methoxy)-2-methyl-2H-pyrazolo[4,3-n]quinazolin-4-yl)-5-ethynyl-6-fluoronaphthalen-2-ol] showed a pIC50 of 7.54. In addition, in assay [2], the “GDP-KRAS G12D (ΔTmD, ° C.)” value amounted to 14.50 °C. The “GppNHp-KRAS G12D (ΔTmD, ° C.)” value in assay [3] was determined as 8.92 °C.

Compound `C#Cc1c(F)ccc2cc(O)cc(-c3c(F)c4nc(OCC5(CN6CC[C@@H](F)C6)CCC5)nc(N5C[C@H]6CC[C@@H](C5)N6)c4c4cn(C)nc34)c12` [Example 98, 4-(9-((1R,5S)-3,8-diazabicyclo[3.2.1]octan-3-yl)-5-fluoro-7-((1-(((R)-3-fluoropyrrolidin-1-yl)methyl)cyclobutyl)methoxy)-2-methyl-2H-pyrazolo[4,3-f]quinazolin-4-yl)-5-ethynyl-6-fluoronaphthalen-2-ol] had a negative-log IC50 (pIC50) in assay [1] of 6.96. Further, the “GDP-KRAS G12D (ΔTmD, ° C.)” value in assay [2] is 11.43 °C. In addition, in assay [3], the “GppNHp-KRAS G12D (ΔTmD, ° C.)” value is 5.79 °C.

In the case of `CCc1c(F)ccc2cc(O)cc(-c3c(F)c4nc(OC[C@@]56CCCN5CC(=C(F)F)C6)nc(N5C[C@H]6CC[C@@H](C5)N6)c4c4cn(C)nc34)c12` [Example 97, 4-(9-((1R,5S)-3,8-diazabicyclo[3.2.1]octan-3-yl)-7-(((S)-2-(difluoromethylene)tetrahydro-1H-pyrrolizin-7a(5H)-yl)methoxy)-5-fluoro-2-methyl-2H-pyrazolo[4,3-f]quinazolin-4-yl)-5-ethyl-6-fluoronaphthalen-2-ol], the pIC50 in assay [1] was 8.15. Further, in assay [2], the “GDP-KRAS G12D (ΔTmD, ° C.)” value turned out to be 14.20 °C. Further, the “GppNHp-KRAS G12D (ΔTmD, ° C.)” value in assay [3] came to 8.42 °C.

`Cc1cc2c(o1)c(-c1cc(O)cc3ccc(F)c(F)c13)c(F)c1nc(OC[C@@]34CCCN3C[C@H](F)C4)nc(N3C[C@H]4CC[C@@H](C3)N4)c12` [Example 46, 4-(1-((1R,5S)-3,8-diazabicyclo[3.2.1]octan-3-yl)-5-fluoro-3-(((2R,7aS)-2-fluorotetrahydro-1H-pyrrolizin-7a(5H)-yl)methoxy)-8-methylfuro[3,2-n]quinazolin-6-yl)-5,6-difluoronaphthalen-2-ol]: the figures for the pIC50 in assay [1] and in assay [4] were 7.60 and 7.35, respectively.

As to `C#Cc1c(F)ccc2cc(N)cc(-c3c(F)c4nc(OC[C@@]56CCCN5CC(=C(F)F)C6)nc(N5C[C@H]6CC[C@@H](C5)N6)c4c4cn(C)nc34)c12` [Example 99, 4-(9-((1R,5S)-3,8-diazabicyclo[3.2.1]octan-3-yl)-7-(((S)-2-(difluoromethylene)tetrahydro-1H-pyrrolizin-7a(5H)-yl)methoxy)-5-fluoro-2-methyl-2H-pyrazolo[4,3-f]quinazolin-4-yl)-5-ethynyl-6-fluoronaphthalen-2-amine], the pIC50 in assay [1] is 7.57. Moreover, the “GDP-KRAS G12D (ΔTmD, ° C.)” value in assay [2] was determined as 11.13 °C. The “GppNHp-KRAS G12D (ΔTmD, ° C.)” value in assay [3] is 7.27 °C.

For the compound `Cc1cc2c(o1)c(-c1ccc(F)c3sc(N)c(C#N)c13)c(F)c1nc(OC[C@@]34CCCN3C/C(=C\F)C4)nc(N3C[C@H]4CC[C@@H](C3)N4)c12` [Example 63, 4-(1-((1R,5S)-3,8-diazabicyclo[3.2.1]octan-3-yl)-5-fluoro-3-(((S,Z)-2-(fluoromethylene)tetrahydro-1H-pyrrolizin-7a(5H)-yl)methoxy)-8-methylfuro[3,2-f]quinazolin-6-yl)-2-amino-7-fluorobenzo[b]thiophene-3-carbonitrile], in assay [4], the pIC50 is 6.27. Moreover, the “GDP-KRAS G12D (ΔTmD, ° C.)” value in assay [2] worked out at 8.72 °C. Moreover, the “GppNHp-KRAS G12D (ΔTmD, ° C.)” value in assay [3] amounted to 9.02 °C.

As to `CCc1c(F)ccc2cc(O)cc(-c3c(F)c4nc(OC[C@@]56CCCN5C[C@H](F)C6)nc(N5C[C@H]6CC[C@@H](C5)N6)c4c4cc(C)oc34)c12` [Example 45, 4-(1-((1R,5S)-3,8-diazabicyclo[3.2.1]octan-3-yl)-5-fluoro-3-(((2R,7aS)-2-fluorotetrahydro-1H-pyrrolizin-7a(5H)-yl)methoxy)-8-methylfuro[3,2-n]quinazolin-6-yl)-5-ethyl-6-fluoronaphthalen-2-ol], the values for the negative-log IC50 (pIC50) in assay [1] and in assay [4] were 7.43 and 7.15, respectively.

On to `CCc1c(F)ccc2cc(O)cc(-c3cc4nc(OC[C@@]56CCCN5C[C@H](F)C6)nc(N5C[C@H]6CC[C@@H](C5)N6)c4c4cn(C)nc34)c12` [Example 83, 4-(9-((1R,5S)-3,8-diazabicyclo[3.2.1]octan-3-yl)-7-(((2R,7aS)-2-fluorotetrahydro-1H-pyrrolizin-7a(5H)-yl)methoxy)-2-methyl-2H-pyrazolo[4,3-f]quinazolin-4-yl)-5-ethyl-6-fluoronaphthalen-2-ol], for which the pIC50 in assay [4] was 7.00. In addition, the “GDP-KRAS G12D (ΔTmD, ° C.)” value in assay [2] was determined as 10.06 °C. Besides, in assay [3], the “GppNHp-KRAS G12D (ΔTmD, ° C.)” value amounted to 5.76 °C.

In assay [4], `Cc1cc2c(o1)c(-c1cc(O)cc3ccccc13)c(F)c1nc(OC[C@@]34CCCN3C[C@H](F)C4)nc(N3C[C@H]4CC[C@@H](C3)N4)c12` [Example 43, 4-(1-((1R,5S)-3,8-diazabicyclo[3.2.1]octan-3-yl)-5-fluoro-3-(((2R,7aS)-2-fluorotetrahydro-1H-pyrrolizin-7a(5H)-yl)methoxy)-8-methylfuro[3,2-f]quinazolin-6-yl)naphthalen-2-ol] had a pIC50 of 6.02. Besides, the “GDP-KRAS G12D (ΔTmD, ° C.)” value in assay [2] amounted to 9.30 °C. Further, in assay [3], the “GppNHp-KRAS G12D (ΔTmD, ° C.)” value came to 4.27 °C.

As to `C#Cc1c(F)ccc2cc(O)cc(-c3c(F)c4nc(OC[C@@]56CCCN5C[C@H](F)C6)nc(NCC5(N(C)C)CCC5)c4c4cc(C)oc34)c12` [Example 48, 4-(1-(((1-(dimethylamino)cyclobutyl)methyl)amino)-5-fluoro-3-(((2R,7aS)-2-fluorotetrahydro-1H-pyrrolizin-7a(5H)-yl)methoxy)-8-methylfuro[3,2-n]quinazolin-6-yl)-5-ethynyl-6-fluoronaphthalen-2-ol], the negative logarithm of the IC50 (pIC50) in assay [1] was 6.87; in assay [4] it was 6.48.
